For data set [1], the system named is alcohol flush reaction and hangover. The following applies: previous studies with famotidine alone.
Data set [2] has as its system alcohol-induced flush reaction. The following applies: for undesired side-effects (drowsiness, sedation): famotidine 10 mg oral chewable tablet, with alcohol; for effects/effectiveness compared to no treatment or comparator: cimetidine 300 mg vs famotidine 10 mg vs no treatment; for effectiveness as preventative treatment against symptoms of alcohol-induced flush reaction (summary of the studies): famotidine at low dose, cimetidine at a higher dose.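 On all read-outs here: human subjects with alcohol-induced flushing observed over social drinking occasions, with each subject also tested untreated as the control.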

The conditions of data set [3]: cited from earlier work.
Where [4] appears, read: Patient one, oral 45 min before drinking: cimetidine 300 mg (2 beverages, about 2 h) or famotidine 10 mg (2 oz tequila and 5 glasses beer, more than 6 h).
The mark [5] stands for this setting: Patient three, oral 45 min before drinking: cimetidine 300 mg (2 beverages, about 3 h) or famotidine 10 mg (cocktails, about 4 h).
Setting [6] is: Subject 1, with alcohol, oral 45 min before drinking: loratidine 20 mg or famotidine 10 mg.
Where [7] appears, read: Subject 2, with alcohol, oral 45 min before drinking: cimetidine 300 mg or famotidine 10 mg.
The mark [8] stands for this setting: Subject 3, with alcohol, oral 45 min before drinking: loratidine 20 mg or famotidine 10 mg.
[9] abbreviates: Subject 4, with alcohol, oral 45 min before drinking: cimetidine 300 mg or famotidine 10 mg.
Where [10] appears, read: Subject 5, with alcohol, oral 45 min before drinking: loratidine 20 mg or famotidine 10 mg.

Like-named read-outs stand apart in the source and are kept apart here.

Turning to `NC(N)=Nc1nc(CSCCC(N)=NS(N)(=O)=O)cs1` [Famotidine], the “symptoms associated with hangover” value in data set [1] is listed as “did not appear to significantly reduce or eliminate symptoms associated with hangover”. Moreover, the “redness while imbibing in alcohol” value in data set [2] (10 mg of famotidine) was “significantly prevents redness”. The “undesired side-effects (drowsiness, sedation)” value in data set [2] (Patient five), in data set [2] (Patient four), in data set [2] (Patient one), in data set [2] (Patient three) and in data set [2] (Patient two) was “no undesired side-effects whatsoever” throughout. The “period after which the protective effect (flushing blockade) dissipated” value in data set [2] (Patient five, famotidine 10 mg oral, continued drinking beyond six drinks and more than six hours) is listed as “about five”. The “flushing reaction after drinking alcohol” value in data set [2] (Patient five, oral 45 min before drinking: loratadine 20 mg (1 beverage, 1 h) or famotidine 10 mg (5 beverages, about 5 h)) is listed as “neither a facial flushing reaction nor any nasal congestion”; in data set [2] (Patient four, oral 45 min before drinking: loratadine 20 mg (3 beverages, 3-4 h) or famotidine 10 mg (multiple glasses of wine, 4 h)), “no flushing reactions of the face or of the torso”; in data set [2] (setting [4]), “no facial flushing reaction”; in data set [2] (setting [5]) it was “no flushing reactions of the face”; in data set [2] (Patient two, oral 45 min before drinking: loratadine 20 mg (3 beverages, 3-4 h) or famotidine 10 mg (2-3 glasses Vodka, several hours)) it was “no flushing reactions, either of the face or of the torso”. Moreover, the “effects/effectiveness compared to no treatment or comparator” value in data set [2] (Patient one) was “much more effective than cimetidine”; in data set [2] (Patient three) it was “much more effective than cimetidine or no treatment”. For the same compound, the Heart rate in data set [2] (setting [6]) came to 77; in data set [2] (setting [7]) it was 82; in data set [2] (setting [8]), 84; in data set [2] (setting [9]), 78; in data set [2] (setting [10]), 83. Besides, the “Temp (F.)” value in data set [2] (setting [6]) is recorded as 97.3 F; in data set [2] (setting [7]), 98.2 F; in data set [2] (setting [8]), 97.4 F; in data set [2] (setting [9]), 97.1 F; in data set [2] (setting [10]), 97.3 F. Moreover, the “effectiveness as preventative treatment against symptoms of alcohol-induced flush reaction (summary of the studies)” value in data set [2] is listed as “highly effective”. For the same compound, the solubility result in data set [3] (in ethanol) is recorded as “practically insoluble”; in data set [3] (in glacial acetic acid), “freely soluble”; in data set [3] (in methanol), “slightly soluble”; in data set [3] (in water) it was “very slightly soluble”.

Consider `CN/C(=N/CCSCc1nc[nH]c1C)NC#N` [Cimetidine], for which the “effects/effectiveness compared to no treatment or comparator” value in data set [2] (Patient one) and in data set [2] (Patient three) was “slightly less aggressive” throughout. Further, the “flushing reaction after drinking alcohol” value in data set [2] (setting [4]) is “still experienced a facial flushing reaction, increased heart rate, as well as a headache”; in data set [2] (setting [5]) it was “still experienced a facial flushing reaction and an increased heart rate”. Also, the Heart rate in data set [2] (setting [7]) is given as 97; in data set [2] (setting [9]), 87. Besides, the “Temp (F.)” value is on record as 98.0 F in data set [2] (setting [7]) and 97.1 F in data set [2] (setting [9]). Moreover, in data set [2], the “effectiveness as preventative treatment against symptoms of alcohol-induced flush reaction (summary of the studies)” value is on record as “minimally effective”.

Values taken from patent publication US20120022122A1, “TREATMENT AND PREVENTION OF DELETERIOUS EFFECTS ASSOCIATED WITH ALCOHOL CONSUMPTION” (priority 2008, published 2012).
